The values that follow come from US4769377A, “Adenosine receptor antagonists” (priority 1986, dated 1988).

By Ki is commonly meant a dissociation constant, usually derived from enzyme kinetics or from competition with a known ligand. The low end stands for a stronger hold on the target, the high end for a looser hold on the target. What is called IC50 is the concentration needed to halve the response being measured. The low end stands for greater potency in that assay, the high end for weaker potency in that assay.

The first experiment has as its target T1, adenosine A1 receptors (Bos taurus, UniProt P28190).
T1 sequence (P28190 1-326): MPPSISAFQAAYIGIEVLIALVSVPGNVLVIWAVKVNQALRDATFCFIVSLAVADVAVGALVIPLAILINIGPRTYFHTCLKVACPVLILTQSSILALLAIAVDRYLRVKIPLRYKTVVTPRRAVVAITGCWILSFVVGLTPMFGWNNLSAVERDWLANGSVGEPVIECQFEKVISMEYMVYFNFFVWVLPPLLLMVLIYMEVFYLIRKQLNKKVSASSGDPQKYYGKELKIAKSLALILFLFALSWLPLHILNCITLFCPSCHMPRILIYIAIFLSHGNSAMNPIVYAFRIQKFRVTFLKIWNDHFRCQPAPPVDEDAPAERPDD
Put plainly: inhibition of [^3 H]CHA binding to A1 adenosine receptors in bovine brain membranes.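 Further: Filter-bound radioactivity read by liquid scintillation counting, with dose-inhibition curves built from 4–8 test concentrations, each run in triplicate.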
Conditions: not given
`Cn1c(=O)c2[nH]c(-c3ccc(O)cc3)nc2n(C)c1=O` [8-(p-hydroxyphenyl)T] showed a Ki of 2 nM.
`Cn1c(=O)c2[nH]c(C3CCCC3)nc2n(C)c1=O` [8-cyclopentylT]: the IC50 was 2 nM.
`Cn1cnc2c(N)ncnc21` [9-methyladenine] gave an IC50 of 35000 nM.
Same read-out and setting: next, `Cn1c(=O)c2[nH]c(-c3ccco3)nc2n(C)c1=O` [8-(2-furyl)T]: 18 nM.
In turn, `Cn1c(=O)c2[nH]c(-c3cccc([N+](=O)[O-])c3)nc2n(C)c1=O` [8-(m-nitrophenyl)T] showed a Ki of 22 nM.
With `Cn1c(=O)c2c(ncn2CCCl)n(C)c1=O` [7-(2-chloroethyl)T], the IC50 worked out at 5000 nM.
As to `Cn1c(=O)c2[nH]c(-c3ccc([N+](=O)[O-])cc3)nc2n(C)c1=O` [8-(p-nitrophenyl)T], the Ki amounted to 4 nM.
`Cn1c(=O)c2[nH]c(-c3ccccn3)nc2n(C)c1=O` [8-(2-pyridyl)T] registered an IC50 of 100 nM.
Consider `Cn1c(=O)c2[nH]c(-c3ccccc3C(=O)O)nc2n(C)c1=O` [8-(o-carboxyphenyl)T], for which the affinity, expressed as Ki, was 21000 nM.
`Cn1c(=O)[nH]c2ncn(C)c2c1=O` [1,7-dimethylX] had an IC50 of 30000 nM and a Ki of 7400 nM.
The compound `Cn1c(=O)c2nc3ccccc3nc2n(C)c1=O` [1,3-dimethylalloxazine] displayed an IC50 of 25000 nM.
Turning to `Cn1c(=O)[nH]c(=O)c2[nH]cnc21` [3-methylX], the 50% inhibitory concentration (IC50) turned out to be 150000 nM.
Take `Cn1cnc2c1c(=O)[nH]c(=O)n2C` [3,7-Dimethyl (theobromine), theobromine]: the affinity, expressed as Ki, was 68 nM.
`Cn1c(=O)c2[nH]c(-c3ccccc3O)nc2n(C)c1=O` [8-(o-hydroxyphenyl)T] registered a Ki of 4.8 nM.
With `Cn1c(=O)c2[nH]c(Cc3ccccc3)nc2n(C)c1=O` [8-benzylT], the half-inhibitory concentration (IC50) was determined as 1500 nM.
Consider `Nc1ncnc2nc[nH]c12` [adenine], for which the IC50 is 800000 nM.
Take `Cn1c(=O)c2[nH]c(-c3cccc(Br)c3)nc2n(C)c1=O` [8-(m-bromophenyl)T]: the affinity corresponds to a Ki of 4 nM.
Consider `Cn1c(=O)c2nc(-c3cccs3)[nH]c2n(C)c1=O` [8-(2-thienyl)T], for which the concentration for half-maximal inhibition (IC50) was 5 nM.
`Cn1c(=O)c2[nH]c(CC3CCCC3)nc2n(C)c1=O` [8-cyclopentylmethylT]: the IC50 is 30 nM.
`Cn1c(=O)c2[nH]c(-c3ccc(S(=O)(=O)O)cc3)nc2n(C)c1=O` [8-(p-sulfo-phenyl)T] displayed a half-inhibitory concentration (IC50) of 500 nM.
As for `Cn1c(=O)c2[nH]c(-c3ccc4ccccc4c3)nc2n(C)c1=O` [8-(2-naphthyl)T], the IC50 worked out at 5 nM.
For the compound `Cn1c(=O)c2[nH]c(-c3ccc(C(=O)O)cc3)nc2n(C)c1=O` [8-(p-carboxyphenyl)T], the Ki was found to be 18 nM.
With `CCCn1c(=O)c2nc[nH]c2n(CCC)c1=O` [B80, 1,3-dipropylxanthine], the IC50 was found to be 200 nM and the affinity, expressed as Ki, was 100 nM.
The compound `Cn1c(=O)[nH]c2nc[nH]c2c1=O` [1-methylX] gave an IC50 of 6000 nM and a Ki of 2600 nM.
`Cn1c(=O)c2[nH]c(-c3cccc(C(=O)O)c3)nc2n(C)c1=O` [8-(m-carboxyphenyl)T] yielded a Ki of 540 nM.
`CCn1c(=O)c2nc[nH]c2n(CC)c1=O` [1,3-diethylX] registered an IC50 of 3000 nM and a Ki of 1400 nM.
Turning to `Cn1c(=O)c2[nH]c(-c3cccc(N)c3)nc2n(C)c1=O` [8-(m-aminophenyl)T], affinity was put at a Ki of 5.8 nM.
Turning to `CCCc1nc2c([nH]1)c(=O)n(C)c(=O)n2C` [8-(n-propyl)T], the IC50 was 100 nM.
`Cn1c(=O)c2[nH]c(-c3ccc(Br)cc3)nc2n(C)c1=O` [8-(p-bromophenyl)T] yielded an IC50 of 0.8 nM and a Ki of 0.34 nM.
The compound `O=c1[nH]c(=O)c2[nH]cnc2[nH]1` [xanthine] came in with an IC50 of 200000 nM and a Ki of 99000 nM.
Take `Cc1ccccc1-c1nc2c([nH]1)c(=O)n(C)c(=O)n2C` [8-(o-methylphenyl)T]: the IC50 was found to be 6 nM.
The same measure, in the same setting: then `CCCn1c(=O)n(CC)c(=O)c2scnc21` [1-ethyl-3-propyl-7-thiaxanthine], with 8000 nM.
In turn, `Cn1c(=O)c2nc(-c3ccccc3N)[nH]c2n(C)c1=O` [B87, 8-(o-aminophenyl)theophylline] had an IC50 of 5 nM and a Ki of 2.3 nM.
For the compound `Cn1c(=O)c2c(ncn2CCO)n(C)c1=O` [7-(2-hydroxyethyl)T], the half-maximal inhibitory concentration (IC50) was found to be 100000 nM.
The same measure, in the same setting: then `Cc1ccc(-c2nc3c([nH]2)c(=O)n(C)c(=O)n3C)s1` [8-(5-methyl-2-thienyl)T], with 5 nM.
`Cn1c(=O)c2[nH]c(-c3cccc(O)c3)nc2n(C)c1=O` [8-(m-hydroxyphenyl)T] yielded a Ki of 3.1 nM.
For the compound `C=CCn1c(=O)c2nc[nH]c2n(CC=C)c1=O` [1,3-diallylX], the IC50 was determined as 4000 nM.
The same measure, in the same setting: next, `Cn1cccc1-c1nc2c([nH]1)c(=O)n(C)c(=O)n2C` [8-(N--methyl-2-pyrrolyl)T]: 20 nM.
Consider `Cn1c(=O)c2[nH]c(-c3ccccc3[N+](=O)[O-])nc2n(C)c1=O` [8-(o-nitrophenyl)T], for which the Ki came to 49 nM.
Compound `Cn1c(=O)c2nc(C3CCCCC3)[nH]c2n(C)c1=O` [8-cyclohexylT] came in with an IC50 of 3 nM.

The experiment is the same for the next values; noted with them: Table II; vs [^3 H-CHA] in bovine brain.
`CCc1ccc(-c2nc3c([nH]2)c(=O)n(C)c(=O)n3C)cc1` [8-(p-ethylphenyl)T] displayed an IC50 of 0.8 nM.
The same measure, in the same setting: then `Cn1c(=O)c2[nH]c(-c3ccc(O)cc3)nc2n(C)c1=O` [8-(p-hydroxyphenyl)T], with 2 nM.
Compound `COc1ccc(-c2nc3c([nH]2)c(=O)n(C)c(=O)n3C)c(OC)c1` [8-(2,4-dimethoxyphenyl)T] yielded an IC50 of 200 nM.
Consider `C=CCn1c(=O)c2[nH]c(-c3ccc(Cl)cc3N)nc2n(CC=C)c1=O` [1,3-diallyl-8-(2-amino-4-chlorophenyl)X, 1,3-diallyl-8-(2-amino-4-chlorophenyl)xanthine], for which the IC50 was 0.8 nM.
`Cn1c(=O)c2[nH]c(-c3ccc(F)cc3)nc2n(C)c1=O` [8-(p-fluorophenyl)T] came in with an IC50 of 3.5 nM.
`C=CCn1c(=O)c2[nH]c(-c3ccccc3)nc2n(C)c1=O` [1-allyl-3-methyl-8-phenylX] had an IC50 of 4 nM.
The compound `Cn1c(=O)c2[nH]c(-c3cccc([N+](=O)[O-])c3)nc2n(C)c1=O` [8-(m-nitrophenyl)T] registered an IC50 of 50 nM.
The same measure, in the same setting: then `Cn1c(=O)c2[nH]c(-c3ccc([N+](=O)[O-])cc3)nc2n(C)c1=O` [8-(p-nitrophenyl)T], with 8 nM; and `CSc1ccc(-c2nc3c([nH]2)c(=O)n(C)c(=O)n3C)cc1` [8-(p-methylthiophenyl)T], with 2 nM.
Still for that read-out and setting: then `Cn1c(=O)c2[nH]c(-c3ccc(I)cc3)nc2n(C)c1=O` [8-(p-iodophenyl)T], with 1.3 nM.
For `Cn1c(=O)c2[nH]c(-c3ccccc3C(=O)O)nc2n(C)c1=O` [8-(o-carboxyphenyl)T], the IC50 was 2500 nM.
As for `Cn1c(=O)c2[nH]c(-c3ccncc3)nc2n(C)c1=O` [8-(4-pyridyl)T], the IC50 was 35 nM.
`Cn1c(=O)c2[nH]c(-c3cccc4ccccc34)nc2n(C)c1=O` [8-(1-naphthyl)T] displayed an IC50 of 80 nM.
Compound `CN(C)c1ccc(-c2nc3c([nH]2)c(=O)n(C)c(=O)n3C)cc1` [8-(p-dimethylaminophenyl)T] gave a half-inhibitory concentration (IC50) of 1.8 nM.
Compound `COc1cc(OC)cc(-c2nc3c([nH]2)c(=O)n(C)c(=O)n3C)c1` [8-(3,5-dimethoxyphenyl)T] gave an IC50 of 500 nM.
The compound `COc1cccc(-c2nc3c([nH]2)c(=O)n(C)c(=O)n3C)c1` [8-(m-methoxyphenyl)T] displayed an IC50 of 20 nM.
As to `Cc1ccc(-c2nc3c([nH]2)c(=O)n(C)c(=O)n3C)cc1` [8-(p-methylphenyl)T], the IC50 amounted to 0.8 nM.
In the case of `Cn1c(=O)c2[nH]c([N+](=O)[O-])nc2n(C)c1=O` [8-nitroT], the IC50 stood at 3500 nM.
In the case of `Cn1c(=O)c2[nH]c(-c3ccccc3O)nc2n(C)c1=O` [8-(o-hydroxyphenyl)T], the IC50 amounted to 10 nM.
Still for that read-out and setting: next, `Cn1c(=O)c2[nH]c(-c3ccoc3)nc2n(C)c1=O` [8-(3-furyl)T]: 4 nM; `Cn1c(=O)c2[nH]c(-[c-]3cccc3)nc2n(C)c1=O.[Fe+2].c1cc[cH-]c1` [8-ferrocenylT]: 20 nM; `Cn1c(=O)c2[nH]c(-c3cccc(Br)c3)nc2n(C)c1=O` [8-(m-bromophenyl)T]: 10 nM.
`Cn1c(=O)c2[nH]c(-c3ccc(C(=O)O)cc3)nc2n(C)c1=O` [8-(p-carboxyphenyl)T] registered an IC50 of 50 nM.
On the same count and under the same terms, then `CCn1c(=O)c2[nH]c(-c3ccc(Br)cc3)nc2n(CC)c1=O` [1,3-diethyl-8-(p-bromophenyl)X], with 1 nM; and `Cn1c(=O)[nH]c2nc(-c3ccccc3)[nH]c2c1=O` [1-methyl-8-phenylX], with 2.5 nM.
Take `CCCCOc1ccc(-c2nc3c([nH]2)c(=O)n(C)c(=O)n3C)cc1` [8-(p-butoxyphenyl)T]: the IC50 came to 4 nM.
For the compound `Cn1c(=O)c2[nH]c(-c3cccc(C(=O)O)c3)nc2n(C)c1=O` [8-(m-carboxyphenyl)T], the IC50 amounted to 1000 nM.
In turn, `Cn1c(=O)c2[nH]c(-c3cccc(F)c3)nc2n(C)c1=O` [8-(m-fluorophenyl)T] yielded a half-inhibitory concentration (IC50) of 4 nM.
`CC(C)c1ccc(-c2nc3c([nH]2)c(=O)n(C)c(=O)n3C)cc1` [8-(p-isopropylphenyl)T] yielded a half-inhibitory concentration (IC50) of 2.5 nM.
`Cn1c(=O)c2[nH]c(-c3cccc(N)c3)nc2n(C)c1=O` [8-(m-aminophenyl)T] displayed an IC50 of 10 nM.
The compound `C=CCn1c(=O)c2[nH]c(-c3ccc(C)cc3N)nc2n(C)c1=O` [1-allyl-3-methyl-8-(2-amino-4-methylphenyl)X] yielded an IC50 of 7 nM.
With `C=CCn1c(=O)c2[nH]c(-c3ccc(Cl)cc3N)nc2n(C)c1=O` [1-allyl-3-methyl-8-(2-amino-4-chlorophenyl)X], the IC50 is 2 nM.
In turn, `CCOc1ccc(-c2nc3c([nH]2)c(=O)n(C)c(=O)n3C)cc1` [8-(p-ethoxyphenyl)T] displayed an IC50 of 2 nM.
In turn, `COc1ccccc1-c1nc2c([nH]1)c(=O)n(C)c(=O)n2C` [8-(o-methoxyphenyl)T] showed an IC50 of 350 nM.
The same measure, in the same setting: next, `Cn1c(=O)c2[nH]c(-c3ccc(Cl)c(Cl)c3)nc2n(C)c1=O` [8-(3,4-dichlorophenyl)T]: 5 nM.
Compound `Cc1cc(O)cc(C)c1-c1nc2c([nH]1)c(=O)n(C)c(=O)n2C` [8-(2,6-dimethyl-4-hydroxyphenyl)T] showed an IC50 of 30 nM.
Same read-out and setting: then `Cn1c(=O)c2[nH]c(-c3cccc(O)c3)nc2n(C)c1=O` [8-(m-hydroxyphenyl)T], with 6 nM.
Regarding `CN(C)c1cccc(-c2nc3c([nH]2)c(=O)n(C)c(=O)n3C)c1` [8-(m-dimethylaminophenyl)T], the IC50 came out at 80 nM.
For `Cn1c(=O)c2[nH]c(-c3ccccc3[N+](=O)[O-])nc2n(C)c1=O` [8-(o-nitrophenyl)T], the IC50 was found to be 80 nM.

Staying with this experiment, now noted: bovine brain.
As to `C=CCn1c(=O)c2[nH]c(-c3ccc(Cl)cc3N)nc2n(CC=C)c1=O` [1,3-diallyl-8-(2-amino-4-chlorophenyl)X, 1,3-diallyl-8-(2-amino-4-chlorophenyl)xanthine], the “adenosine receptor blocking activity (in words)” value is listed as “useful activity as an adenosine receptor antagonist”.
